Experimental data: patent US20230085307A1, “PYRIDAZINONE COMPOUND AND HERBICIDE” (NISSAN CHEMICAL CORPORATION, priority 2019, published 2023)

Assays:
Italian ryegrass [1] = test: Test Example 4: herbicidal effect by soil treatment (Table 19, symbol K); format: in vivo, Italian ryegrass (Lolium multiflorum); details: amount of applied herbicide 320 g/ha
In short: (§1)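 Scoring uses the grading scale of an earlier test, three weeks post-application. Treatment consists of spraying a diluted emulsion formulation across the surface of sterilized diluvial soil in which seeds are buried near 1.5 cm deep; boxes are kept in a greenhouse between 25° C. and 30° C.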

windgrass [2] = test: Test Example 5: herbicidal effect by foliage application, plastic box (Table 20, symbol L); format: in vivo, windgrass (Apera spica-venti); details: foliage application, 320 g/ha, three weeks after application
In short: (§2)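 Post-emergence foliar test in sterilized diluvial soil. Compound applied as water-diluted emulsion at a predetermined rate to 14-day-old plants; evaluation at three weeks.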

lambsquarters [3] = test: Test Example 4: herbicidal effect by soil treatment (Table 19, symbol O); format: in vivo, lambsquarters (Chenopodium album); details: amount of applied herbicide 320 g/ha
In short: as §1

Chinese sprangletop = test: Test Example 3: herbicidal effect by foliage application, Wagner pot (Table 18, symbol D); format: in vivo, chinese sprangletop (Leptochloa chinensis)
In short: (§3)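 Plants were sown in alluvial soil held under 0.1–0.5 cm standing water and grown 14 days in a greenhouse at 25–30 °C. An emulsifiable formulation, water-diluted to the set dose, was then sprayed onto the foliage, and effects were scored three weeks later using previously defined criteria.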

late watergrass = test: Test Example 1: herbicidal activity, application before weed generation under submerged conditions (Table 16, symbol A); format: in vivo, late watergrass (Echinochloa oryzicola); details: amount of applied herbicide 320 g/ha
In short: (§4)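 Alluvial soil was flooded to 4 cm depth, weed seeds were sown mixed and 2.5-leaf rice seedlings were transplanted. On sowing day, the compound's emulsion, diluted in water to a set dose, was applied to the water surface. Plants grew at 25–30 °C and were scored 0–5 after three weeks.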

velvetleaf [4] = test: Test Example 5: herbicidal effect by foliage application, plastic box (Table 20, symbol M); format: in vivo, velvetleaf (Abutilon theophrasti); details: foliage application, 320 g/ha, three weeks after application
In short: as §2

green foxtail [5] = test: Test Example 5: herbicidal effect by foliage application, plastic box (Table 20, symbol G); format: in vivo, green foxtail (Setaria viridis); details: foliage application, 320 g/ha, three weeks after application
In short: as §2

barnyard grass [6] = test: Test Example 5: herbicidal effect by foliage application, plastic box (Table 20, symbol H); format: in vivo, barnyard grass (Echinochloa crus-galli); details: foliage application, 320 g/ha, three weeks after application
In short: as §2

windgrass [7] = test: Test Example 4: herbicidal effect by soil treatment (Table 19, symbol L); format: in vivo, windgrass (Apera spica-venti); details: amount of applied herbicide 320 g/ha
In short: as §1

rice flat sedge = test: Test Example 3: herbicidal effect by foliage application, Wagner pot (Table 18, symbol E); format: in vivo, rice flat sedge (Cyperus iria)
In short: as §3

wild oat [8] = test: Test Example 4: herbicidal effect by soil treatment (Table 19, symbol I); format: in vivo, wild oat (Avena fatua); details: amount of applied herbicide 320 g/ha
In short: as §1

green foxtail [9] = test: Test Example 4: herbicidal effect by soil treatment (Table 19, symbol G); format: in vivo, green foxtail (Setaria viridis); details: amount of applied herbicide 320 g/ha
In short: as §1

persian speedwell [10] = test: Test Example 5: herbicidal effect by foliage application, plastic box (Table 20, symbol R); format: in vivo, Persian speedwell (Veronica persica); details: foliage application, 320 g/ha, three weeks after application
In short: as §2

redroot pigweed [11] = test: Test Example 4: herbicidal effect by soil treatment (Table 19, symbol N); format: in vivo, redroot pigweed (Amaranthus retroflexus); details: amount of applied herbicide 320 g/ha
In short: as §1

persian speedwell [12] = test: Test Example 4: herbicidal effect by soil treatment (Table 19, symbol R); format: in vivo, Persian speedwell (Veronica persica); details: amount of applied herbicide 320 g/ha
In short: as §1

chickweed [13] = test: Test Example 4: herbicidal effect by soil treatment (Table 19, symbol P); format: in vivo, common chickweed (Stellaria media); details: amount of applied herbicide 320 g/ha
In short: as §1

blackgrass [14] = test: Test Example 4: herbicidal effect by soil treatment (Table 19, symbol J); format: in vivo, blackgrass (Alopecurus myosuroides); details: amount of applied herbicide 320 g/ha
In short: as §1

Italian ryegrass [15] = test: Test Example 5: herbicidal effect by foliage application, plastic box (Table 20, symbol K); format: in vivo, Italian ryegrass (Lolium multiflorum); details: foliage application, 320 g/ha, three weeks after application
In short: as §2

velvetleaf [16] = test: Test Example 4: herbicidal effect by soil treatment (Table 19, symbol M); format: in vivo, velvetleaf (Abutilon theophrasti); details: amount of applied herbicide 320 g/ha
In short: as §1

wild oat [17] = test: Test Example 5: herbicidal effect by foliage application, plastic box (Table 20, symbol I); format: in vivo, wild oat (Avena fatua); details: foliage application, 320 g/ha, three weeks after application
In short: as §2

blackgrass [18] = test: Test Example 5: herbicidal effect by foliage application, plastic box (Table 20, symbol J); format: in vivo, blackgrass (Alopecurus myosuroides); details: foliage application, 320 g/ha, three weeks after application
In short: as §2

southern crabgrass [19] = test: Test Example 5: herbicidal effect by foliage application, plastic box (Table 20, symbol F); format: in vivo, southern crabgrass (Digitaria ciliaris); details: foliage application, 320 g/ha, three weeks after application
In short: as §2

oval-leafed pondweed = test: Test Example 1: herbicidal activity, application before weed generation under submerged conditions (Table 16, symbol C); format: in vivo, oval-leafed pondweed (Monochoria vaginalis); details: amount of applied herbicide 320 g/ha
In short: as §4

lambsquarters [20] = test: Test Example 5: herbicidal effect by foliage application, plastic box (Table 20, symbol O); format: in vivo, lambsquarters (Chenopodium album); details: foliage application, 320 g/ha, three weeks after application
In short: as §2

barnyard grass [21] = test: Test Example 3: herbicidal effect by foliage application, Wagner pot (Table 18, symbol H); format: in vivo, barnyard grass (Echinochloa crus-galli)
In short: as §3

chickweed [22] = test: Test Example 5: herbicidal effect by foliage application, plastic box (Table 20, symbol P); format: in vivo, common chickweed (Stellaria media); details: foliage application, 320 g/ha, three weeks after application
In short: as §2

redroot pigweed [23] = test: Test Example 5: herbicidal effect by foliage application, plastic box (Table 20, symbol N); format: in vivo, redroot pigweed (Amaranthus retroflexus); details: foliage application, 320 g/ha, three weeks after application
In short: as §2

Japanese bulrush = test: Test Example 1: herbicidal activity, application before weed generation under submerged conditions (Table 16, symbol B); format: in vivo, Japanese bulrush (Schoenoplectus juncoides); details: amount of applied herbicide 320 g/ha
In short: as §4

barnyard grass [24] = test: Test Example 4: herbicidal effect by soil treatment (Table 19, symbol H); format: in vivo, barnyard grass (Echinochloa crus-galli); details: amount of applied herbicide 320 g/ha
In short: as §1

southern crabgrass [25] = test: Test Example 4: herbicidal effect by soil treatment (Table 19, symbol F); format: in vivo, southern crabgrass (Digitaria ciliaris); details: amount of applied herbicide 320 g/ha
In short: as §1

[26] = amount of applied herbicide 320 g/ha

Row | Compound | L: windgrass, herbicidal effect grade (windgrass [2]) | Herbicidal effect, A: late watergrass (late watergrass) | M: velvetleaf, herbicidal effect grade (velvetleaf [4]) | G: green foxtail, herbicidal effect grade (green foxtail [5]) | H: barnyard grass, herbicidal effect grade (barnyard grass [6]) | R: persian speedwell, herbicidal effect grade (persian speedwell [10]) | K: Italian ryegrass, herbicidal effect grade (Italian ryegrass [15]) | I: wild oat, herbicidal effect grade (wild oat [17]) | J: blackgrass, herbicidal effect grade (blackgrass [18]) | F: southern crabgrass, herbicidal effect grade (southern crabgrass [19]) | Herbicidal effect, C: oval-leafed pondweed (oval-leafed pondweed) | O: lambsquarters, herbicidal effect grade (lambsquarters [20]) | P: chickweed, herbicidal effect grade (chickweed [22]) | N: redroot pigweed, herbicidal effect grade (redroot pigweed [23]) | Herbicidal effect, B: Japanese bulrush (Japanese bulrush) | further results
1 | COc1ccccc1-c1sc2cc(F)ccc2c1-c1c(OC(=O)COc2ccccc2)c(C)nn(C)c1=O [3-021] | 5 (Herbicidal rate of 90% or more (almost completely withered)) | 3 (Herbicidal rate of 40% or more and less than 70%) | 5 (Herbicidal rate of 90% or more (almost completely withered)) | 5 (Herbicidal rate of 90% or more (almost completely withered)) | 5 (Herbicidal rate of 90% or more (almost completely withered)) | 4 (Herbicidal rate of 70% or more and less than 90%) | 4 (Herbicidal rate of 70% or more and less than 90%) | 4 (Herbicidal rate of 70% or more and less than 90%) | 4 (Herbicidal rate of 70% or more and less than 90%) | 4 (Herbicidal rate of 70% or more and less than 90%) | 4 (Herbicidal rate of 70% or more and less than 90%) | 5 (Herbicidal rate of 90% or more (almost completely withered)) | 5 (Herbicidal rate of 90% or more (almost completely withered)) | 5 (Herbicidal rate of 90% or more (almost completely withered)) | 3 (Herbicidal rate of 40% or more and less than 70%) | herbicidal effect, K: Italian ryegrass (Italian ryegrass [1]): 4 (Herbicidal rate of 70% or more and less than 90%); herbicidal effect, O: lambsquarters (lambsquarters [3]): 4 (Herbicidal rate of 70% or more and less than 90%); herbicidal effect on D: Chinese sprangletop (Chinese sprangletop; [26]): 3 (Herbicidal rate of 40% or more and less than 70%); herbicidal effect, L: windgrass (windgrass [7]): 3 (Herbicidal rate of 40% or more and less than 70%); herbicidal effect on E: rice flat sedge (rice flat sedge; [26]): 5 (Herbicidal rate of 90% or more (almost completely withered)); herbicidal effect, I: wild oat (wild oat [8]): 1 (Herbicidal rate of 5% or more and less than 20%); herbicidal effect, G: green foxtail (green foxtail [9]): 4 (Herbicidal rate of 70% or more and less than 90%); herbicidal effect, N: redroot pigweed (redroot pigweed [11]): 4 (Herbicidal rate of 70% or more and less than 90%); herbicidal effect, R: persian speedwell (persian speedwell [12]): 4 (Herbicidal rate of 70% or more and less than 90%); herbicidal effect, P: chickweed (chickweed [13]): 3 (Herbicidal rate of 40% or more and less than 70%); herbicidal effect, J: blackgrass (blackgrass [14]): 4 (Herbicidal rate of 70% or more and less than 90%); herbicidal effect, M: velvetleaf (velvetleaf [16]): 0 (Herbicidal rate of 5% or less (almost no effect)); herbicidal effect on H: barnyard grass (barnyard grass [21]; [26]): 5 (Herbicidal rate of 90% or more (almost completely withered)); herbicidal effect, H: barnyard grass (barnyard grass [24]): 4 (Herbicidal rate of 70% or more and less than 90%); herbicidal effect, F: southern crabgrass (southern crabgrass [25]): 3 (Herbicidal rate of 40% or more and less than 70%)
2 | Cc1nn(C)c(=O)c(-c2c(-c3ccc4c(c3)OCCO4)sc3cc(Cl)ccc23)c1O [3-047] | 0 (Herbicidal rate of 5% or less (almost no effect)) | 3 (Herbicidal rate of 40% or more and less than 70%) | 1 (Herbicidal rate of 5% or more and less than 20%) | 0 (Herbicidal rate of 5% or less (almost no effect)) | 0 (Herbicidal rate of 5% or less (almost no effect)) | 5 (Herbicidal rate of 90% or more (almost completely withered)) | 0 (Herbicidal rate of 5% or less (almost no effect)) | 0 (Herbicidal rate of 5% or less (almost no effect)) | 0 (Herbicidal rate of 5% or less (almost no effect)) | 0 (Herbicidal rate of 5% or less (almost no effect)) | 0 (Herbicidal rate of 5% or less (almost no effect)) | 2 (Herbicidal rate of 20% or more and less than 40%) | 3 (Herbicidal rate of 40% or more and less than 70%) | 0 (Herbicidal rate of 5% or less (almost no effect)) | 2 (Herbicidal rate of 20% or more and less than 40%) | K: Italian ryegrass, herbicidal effect grade (Italian ryegrass [1]): 0 (Herbicidal rate of 5% or less (almost no effect)); O: lambsquarters, herbicidal effect grade (lambsquarters [3]): 3 (Herbicidal rate of 40% or more and less than 70%); herbicidal effect on Chinese sprangletop (D) (Chinese sprangletop; 320 g/ha): 3 (Herbicidal rate of 40% or more and less than 70%); L: windgrass, herbicidal effect grade (windgrass [7]): 0 (Herbicidal rate of 5% or less (almost no effect)); herbicidal effect on rice flat sedge (E) (rice flat sedge; 320 g/ha): 2 (Herbicidal rate of 20% or more and less than 40%); I: wild oat, herbicidal effect grade (wild oat [8]): 0 (Herbicidal rate of 5% or less (almost no effect)); G: green foxtail, herbicidal effect grade (green foxtail [9]): 0 (Herbicidal rate of 5% or less (almost no effect)); N: redroot pigweed, herbicidal effect grade (redroot pigweed [11]): 1 (Herbicidal rate of 5% or more and less than 20%); R: persian speedwell, herbicidal effect grade (persian speedwell [12]): 5 (Herbicidal rate of 90% or more (almost completely withered)); P: chickweed, herbicidal effect grade (chickweed [13]): 0 (Herbicidal rate of 5% or less (almost no effect)); J: blackgrass, herbicidal effect grade (blackgrass [14]): 0 (Herbicidal rate of 5% or less (almost no effect)); M: velvetleaf, herbicidal effect grade (velvetleaf [16]): 0 (Herbicidal rate of 5% or less (almost no effect)); herbicidal effect on barnyard grass (H) (barnyard grass [21]; 320 g/ha): 3 (Herbicidal rate of 40% or more and less than 70%); H: barnyard grass, herbicidal effect grade (barnyard grass [24]): 0 (Herbicidal rate of 5% or less (almost no effect)); F: southern crabgrass, herbicidal effect grade (southern crabgrass [25]): 0 (Herbicidal rate of 5% or less (almost no effect))
